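Growth conditions: 96-well plates. Treatment: test compound, 48 hours, 5 concentrations. Analysis: linear interpolation between bracketing concentrations; unreached endpoints set to highest concentration. The concentration for 50% growth inhibition is given as GI50.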 The source made the active and inactive calls. Cut-off read from the data, not from the text of the source: active = GI50 up to about 1.1 µM and inactive = higher.
Columns and labels:
Test in all cases: DTP human tumour cell line panel, 48 h
786-0 = tested on: 786-0
A498 = tested on: A498
A549 = tested on: A549
ACHN = tested on: ACHN
BT-549 = tested on: BT-549
CAKI-1 = tested on: CAKI-1
CCRF-CEM = tested on: CCRF-CEM
COLO 205 = tested on: COLO 205
EKVX = tested on: EKVX
HCC 2998 = tested on: HCC 2998
HCT-116 = tested on: HCT-116
HCT-15 = tested on: HCT-15
HL-60 = tested on: HL-60
HOP-62 = tested on: HOP-62
HOP-92 = tested on: HOP-92
HT-29 = tested on: HT-29
IGROV-1 = tested on: IGROV-1
K562 = tested on: K562
KM12 = tested on: KM12
LOX IMVI = tested on: LOX IMVI
M14 = tested on: M14
MCF7 = tested on: MCF7
MDA-MB-435 = tested on: MDA-MB-435
MDA-N = tested on: MDA-N
MOLT-4 = tested on: MOLT-4
Malme-3M = tested on: Malme-3M
NCI-H226 = tested on: NCI-H226
NCI-H23 = tested on: NCI-H23
NCI-H522 = tested on: NCI-H522
NCI/ADR-RES = tested on: NCI/ADR-RES
OVCAR-3 = tested on: OVCAR-3
OVCAR-4 = tested on: OVCAR-4
OVCAR-5 = tested on: OVCAR-5
OVCAR-8 = tested on: OVCAR-8
PC-3 = tested on: PC-3
RPMI-8226 = tested on: RPMI-8226
SF-295 = tested on: SF-295
SF-539 = tested on: SF-539
SK-MEL-28 = tested on: SK-MEL-28
SK-MEL-2 = tested on: SK-MEL-2
SK-MEL-5 = tested on: SK-MEL-5
SK-OV-3 = tested on: SK-OV-3
SN12C = tested on: SN12C
SNB-75 = tested on: SNB-75
SW-620 = tested on: SW-620
T47D = tested on: T47D
TK-10 = tested on: TK-10
U-251 = tested on: U-251
UACC-257 = tested on: UACC-257
UACC-62 = tested on: UACC-62
UO-31 = tested on: UO-31
DU-145 = tested on: DU-145
MDA-MB-231 = tested on: MDA-MB-231
NCI-H460 = tested on: NCI-H460
RXF 393 = tested on: RXF 393
SF-268 = tested on: SF-268
SNB-19 = tested on: SNB-19

CN(C)/C=N\c1nncc2[nH]cnc12
GI50 (786-0): > 100 µM (inactive) | GI50 (A498): > 100 µM (inactive) | GI50 (A549): > 100 µM (inactive) | GI50 (ACHN): > 100 µM (inactive) | GI50 (BT-549): > 100 µM (inactive) | GI50 (CAKI-1): > 100 µM (inactive) | GI50 (CCRF-CEM): 46.1 µM (inactive) | GI50 (COLO 205): > 100 µM (inactive) | GI50 (EKVX): > 100 µM (inactive) | GI50 (HCC 2998): > 100 µM (inactive) | GI50 (HCT-116): 87.3 µM (inactive) | GI50 (HCT-15): > 100 µM | GI50 (HL-60): > 10 µM (inactive) | GI50 (HOP-62): 60.1 µM (inactive) | GI50 (HOP-92): 19.9 µM (inactive) | GI50 (HT-29): > 100 µM (inactive) | GI50 (IGROV-1): > 100 µM (inactive) | GI50 (K562): 43.6 µM (inactive) | GI50 (KM12): > 100 µM (inactive) | GI50 (LOX IMVI): 55.8 µM (inactive) | GI50 (M14): 55.8 µM (inactive) | GI50 (MCF7): > 100 µM (inactive) | GI50 (MDA-MB-435): 63.5 µM (inactive) | GI50 (MDA-N): 79.8 µM (inactive) | GI50 (MOLT-4): 77.6 µM (inactive) | GI50 (Malme-3M): 68.7 µM (inactive) | GI50 (NCI-H226): > 100 µM (inactive) | GI50 (NCI-H23): > 100 µM (inactive) | GI50 (NCI-H522): > 100 µM (inactive) | GI50 (NCI/ADR-RES): > 100 µM (inactive) | GI50 (OVCAR-3): > 100 µM (inactive) | GI50 (OVCAR-4): > 100 µM (inactive) | GI50 (OVCAR-5): > 100 µM (inactive) | GI50 (OVCAR-8): > 100 µM (inactive) | GI50 (PC-3): > 100 µM (inactive) | GI50 (RPMI-8226): > 100 µM (inactive) | GI50 (SF-295): > 100 µM (inactive) | GI50 (SF-539): > 100 µM (inactive) | GI50 (SK-MEL-28): > 100 µM (inactive) | GI50 (SK-MEL-2): > 100 µM (inactive) | GI50 (SK-MEL-5): > 100 µM (inactive) | GI50 (SK-OV-3): > 100 µM (inactive) | GI50 (SN12C): > 100 µM (inactive) | GI50 (SNB-75): > 100 µM (inactive) | GI50 (SW-620): 82.6 µM (inactive) | GI50 (T47D): > 100 µM (inactive) | GI50 (TK-10): 73.6 µM (inactive) | GI50 (U-251): > 100 µM (inactive) | GI50 (UACC-257): 92.7 µM (inactive) | GI50 (UACC-62): 51.8 µM (inactive) | GI50 (UO-31): 98.6 µM (inactive)

C[C@@H]1OC(=O)C[C@H]2CC(=O)N(CCC3CN(S(=O)(=O)C(F)(F)F)c4ccc(Cc5ccc6c(c5)C(CCN5C[C@H]7[C@@H](CC(=O)O[C@H]7C)CC5=O)CN6S(=O)(=O)C(F)(F)F)cc43)C[C@@H]21 (some centres not stated)
GI50 (786-0): > 100 µM (inactive) | GI50 (A498): > 100 µM (inactive) | GI50 (A549): > 100 µM (inactive) | GI50 (ACHN): > 100 µM (inactive) | GI50 (BT-549): > 100 µM (inactive) | GI50 (CAKI-1): > 100 µM (inactive) | GI50 (CCRF-CEM): > 100 µM (inactive) | GI50 (COLO 205): > 100 µM (inactive) | GI50 (DU-145): > 100 µM (inactive) | GI50 (EKVX): > 100 µM (inactive) | GI50 (HCC 2998): > 100 µM (inactive) | GI50 (HCT-116): > 100 µM (inactive) | GI50 (HCT-15): > 100 µM | GI50 (HOP-62): > 100 µM (inactive) | GI50 (HOP-92): > 100 µM (inactive) | GI50 (K562): > 100 µM (inactive) | GI50 (KM12): > 100 µM (inactive) | GI50 (LOX IMVI): > 100 µM (inactive) | GI50 (M14): > 100 µM (inactive) | GI50 (MCF7): > 100 µM (inactive) | GI50 (MDA-MB-231): > 100 µM (inactive) | GI50 (MDA-MB-435): > 100 µM (inactive) | GI50 (MOLT-4): > 100 µM (inactive) | GI50 (Malme-3M): > 100 µM (inactive) | GI50 (NCI-H226): > 100 µM (inactive) | GI50 (NCI-H23): > 100 µM (inactive) | GI50 (NCI-H460): > 100 µM (inactive) | GI50 (NCI/ADR-RES): > 100 µM (inactive) | GI50 (OVCAR-3): > 100 µM (inactive) | GI50 (OVCAR-4): > 100 µM (inactive) | GI50 (OVCAR-5): > 100 µM (inactive) | GI50 (OVCAR-8): > 100 µM (inactive) | GI50 (PC-3): > 100 µM (inactive) | GI50 (RPMI-8226): > 100 µM (inactive) | GI50 (RXF 393): > 100 µM (inactive) | GI50 (SF-268): > 100 µM (inactive) | GI50 (SF-295): > 100 µM (inactive) | GI50 (SF-539): < 0.01 µM (active) | GI50 (SK-MEL-28): > 100 µM (inactive) | GI50 (SK-MEL-2): > 100 µM (inactive) | GI50 (SK-MEL-5): > 100 µM (inactive) | GI50 (SK-OV-3): > 100 µM (inactive) | GI50 (SNB-19): > 100 µM (inactive) | GI50 (SNB-75): > 100 µM (inactive) | GI50 (SW-620): > 100 µM (inactive) | GI50 (T47D): > 100 µM (inactive) | GI50 (TK-10): > 100 µM (inactive) | GI50 (U-251): > 100 µM (inactive) | GI50 (UACC-257): > 100 µM (inactive) | GI50 (UACC-62): > 100 µM (inactive) | GI50 (UO-31): > 100 µM (inactive)
